{"source": "patent US20110104257A1", "about": "“POLYMORPHISMS PREDICTIVE OF PLATINUM-COORDINATING COMPOUND-INDUCED OTOTOXICITY” (priority 2008, published 2011)", "origin": "cited, not measured here", "molecules": {"B1": {"name": "SOD2: SOD2, protective agent (protein, UniProt P04179 25-222, looked up)", "Superoxide dismutase [Mn], …": "KHSLPDLPYDYGALEPHINAQIMQLHHSKHHAAYVNNLNVTEEKYQEALAKGDVTAQIALQPALKFNGGGHINHSIFWTNLSPNGGGEPKGELLEAIKRDFGSFDKFKEKLTAASVGVQGSGWGWLGFNKERGHLQIAACPNQDPLQGTTGLIPLLGIDVWEHAYYLQYKNVRPDYLKAIWNVINWENVTERYMACKK"}}, "key": {"[1]": {"tested_on": "aminoglycoside ototoxicity", "conditions": "Guinea pig"}, "cisplatin ototoxicity [2]": {"tested_on": "cisplatin ototoxicity", "design": "key to the marks not given beside the values", "conditions": "Hamster"}, "cisplatin ototoxicity [3]": {"tested_on": "cisplatin ototoxicity", "conditions": "Rat"}, "[4]": {"tested_on": "aminoglycoside ototoxicity", "design": "key to the marks not given beside the values", "conditions": "Gentamicin; Rat"}, "cisplatin ototoxicity [5]": {"tested_on": "cisplatin ototoxicity", "conditions": "species cell empty"}, "[6]": {"tested_on": "aminoglycoside ototoxicity", "design": "key to the marks not given beside the values", "conditions": "Gentamicin; Mouse"}, "cisplatin ototoxicity [7]": {"tested_on": "cisplatin ototoxicity", "design": "key to the marks not given beside the values", "conditions": "Chinchilla"}, "[8]": {"conditions": "mice"}, "cisplatin ototoxicity [9]": {"tested_on": "cisplatin ototoxicity", "design": "key to the marks not given beside the values", "conditions": "Guinea pig"}}, "note": "Like-named read-outs stand apart in the source and are kept apart here."}
{"molecule": "O=C(O)CCCC[C@@H]1CCSS1", "note": "(racemic) [Lipoic acid]; on Efficacy of protective agent against aminoglycoside ototoxicity: key: +, low efficacy; ++, moderate efficacy; +++, high efficacy", "values": [{"measurement": "Efficacy of protective agent against aminoglycoside ototoxicity", "setting": "[1]; Amikacin", "value": "+++"}]}
{"molecule": "c1ccc(-c2ccccn2)nc1", "note": "[2,2-DPD, 2,2′-dipyridyl]", "values": [{"measurement": "Efficacy of protective agent against aminoglycoside ototoxicity", "setting": "[1]; Gentamicin", "value": "++"}]}
{"molecule": "NCC[C@H](O)C(=O)N[C@@H]1C[C@H](N)[C@@H](O[C@H]2O[C@H](CN)[C@@H](O)[C@H](O)[C@H]2O)[C@H](O)[C@H]1O[C@H]1O[C@H](CO)[C@@H](O)[C@H](N)[C@H]1O", "note": "[Amakacin preconditioning]", "values": [{"measurement": "Efficacy of protective agent against aminoglycoside ototoxicity", "setting": "[1]; Amikacin", "value": "++"}]}
{"molecule": "NCCCNCCSP(=O)(O)O", "note": "[Amifostine]", "values": [{"measurement": "Degree of protection against cisplatin ototoxicity", "setting": "cisplatin ototoxicity [2]", "value": "+++"}]}
{"molecule": "N=C(N)NN", "note": "[Aminoguanidine]", "values": [{"measurement": "Degree of protection against cisplatin ototoxicity", "setting": "cisplatin ototoxicity [3]", "value": "++"}]}
{"molecule": "CSCC[C@H](NC(=O)[C@H](Cc1ccccc1)NC[C@@H](NC[C@@H](N)CS)C(C)C)C(=O)O", "note": "[B581]", "values": [{"measurement": "Efficacy of protective agent against aminoglycoside ototoxicity", "setting": "[4]", "value": "++"}]}
{"molecule": "OC[C@H]1O[C@@H](n2cnc3c(NC4CCCC4)nc(Cl)nc32)[C@H](O)[C@@H]1O", "note": "[CCPA, 2-chloro-N-cyclopentyladenosine]", "values": [{"measurement": "Degree of protection against cisplatin ototoxicity", "setting": "cisplatin ototoxicity [5]", "value": "++"}]}
{"molecule": "CCSCc1ccc2c(c1)c1c3c(c4c5cc(CSCC)ccc5n5c4c1n2[C@H]1C[C@](O)(C(=O)OC)[C@]5(C)O1)CNC3=O", "note": "[CEP1347]", "values": [{"measurement": "Efficacy of protective agent against aminoglycoside ototoxicity", "setting": "[1]; Gentamicin", "value": "+"}]}
{"molecule": "CSCC[C@@H](N)C(=O)O", "note": "[D-methionine]", "values": [{"measurement": "Efficacy of protective agent against aminoglycoside ototoxicity", "setting": "[1]; Gentamicin", "value": "++"}, {"measurement": "Degree of protection against cisplatin ototoxicity", "setting": "cisplatin ototoxicity [3]", "value": "+++"}]}
{"molecule": "C=C(CC)C(=O)c1ccc(OCC(=O)O)c(Cl)c1Cl", "note": "[Ethacrynic acid]", "values": [{"measurement": "Efficacy of protective agent against aminoglycoside ototoxicity", "setting": "[1]; Gentamicin", "value": "+"}]}
{"molecule": "COC(=O)[C@H](CCSC)NC(=O)c1ccc(NC[C@@H](N)CS)cc1-c1ccccc1", "note": "[FTI277]", "values": [{"measurement": "Efficacy of protective agent against aminoglycoside ototoxicity", "setting": "[4]", "value": "+++"}]}
{"molecule": "Nc1nc2c(ncn2[C@@H]2O[C@H](COP(=O)(O)OP(O)(O)=S)[C@@H](O)[C@H]2O)c(=O)[nH]1", "note": "[GDP-βs]", "values": [{"measurement": "Efficacy of protective agent against aminoglycoside ototoxicity", "setting": "[4]", "value": "+++"}]}
{"molecule": "[Cl-].[Cl-].[Mn+2].c1cc2nc(c1)CN[C@@H]1CCCC[C@H]1NCCN[C@@H]1CCCC[C@H]1NC2", "note": "[M40403]", "values": [{"measurement": "Efficacy of protective agent against aminoglycoside ototoxicity", "setting": "[6]", "value": "++"}, {"measurement": "Degree of protection against cisplatin ototoxicity", "setting": "cisplatin ototoxicity [5]", "value": 0}]}
{"molecule": "NS(=O)(=O)C#Cc1ccccc1", "note": "[Pifithrin]", "values": [{"measurement": "Degree of protection against cisplatin ototoxicity", "setting": "cisplatin ototoxicity [5]", "value": "++"}]}
{"molecule": "C[C@H](Cc1ccccc1)Nc1ncnc2c1ncn2[C@@H]1O[C@H](CO)[C@@H](O)[C@H]1O", "note": "[R-PIA]", "values": [{"measurement": "Degree of protection against cisplatin ototoxicity", "setting": "cisplatin ototoxicity [7]", "value": "++"}]}
{"molecule": "C[S+](CC[C@H](N)C(=O)O)C[C@H]1O[C@@H](n2cnc3c(N)ncnc32)[C@H](O)[C@@H]1O", "note": "(stereo partly shown) [SAM, S-adenosyl methionine]", "values": [{"measurement": "toxicity as monitored by renal dysfunction (creatinine and BUN)", "setting": "[8]", "value": "not toxic"}]}
{"molecule": "CC(S)C(=O)NCC(=O)O", "note": "(stereo not shown) [Tiopronin]", "values": [{"measurement": "Degree of protection against cisplatin ototoxicity", "setting": "cisplatin ototoxicity [3]", "value": "++"}]}
{"molecule": "Cc1c(C)c2c(c(C)c1O)CCC(C)(C(=O)O)O2", "note": "(stereo not shown) [Trolox]", "values": [{"measurement": "Degree of protection against cisplatin ototoxicity", "setting": "cisplatin ototoxicity [9]", "value": "++"}]}
{"molecule": "N.N.[Cl][Pt][Cl]", "note": "[cisplatin]", "values": [{"measurement": "severe, permanent, bilateral hearing loss, share of patients", "setting": "adult patients", "value": "10-25%"}, {"measurement": "severe, permanent, bilateral hearing loss, share of patients", "setting": "children", "value": "41-61%"}, {"measurement": "Permanent hearing loss, frequency", "setting": "children less than 5 years old", "value": 48, "unit": "%"}, {"measurement": "severe, permanent, bilateral hearing loss, share of patients", "setting": "patients receiving high doses (>400 mg/m^2)", "value": 50, "unit": "%"}, {"measurement": "Permanent hearing loss, share of patients", "setting": "patients receiving standard doses of cisplatin", "value": 25, "unit": "%"}]}
{"molecule": "Cc1c(C)c2c(c(C)c1O)CC[C@@](C)(CCC[C@H](C)CCC[C@H](C)CCCC(C)C)O2", "note": "[α-Tocopherol]", "values": [{"measurement": "Efficacy of protective agent against aminoglycoside ototoxicity", "setting": "[1]; Gentamicin", "value": "+++"}, {"measurement": "Degree of protection against cisplatin ototoxicity", "setting": "cisplatin ototoxicity [9]", "value": "++"}, {"measurement": "Degree of protection against cisplatin ototoxicity", "setting": "cisplatin ototoxicity [3]", "value": "++"}]}
{"molecule": "Glutathione ester", "values": [{"measurement": "Degree of protection against cisplatin ototoxicity", "setting": "cisplatin ototoxicity [3]", "value": "+"}]}
{"molecule": "Methylthiobenzoic acid", "values": [{"measurement": "Degree of protection against cisplatin ototoxicity", "setting": "cisplatin ototoxicity [3]", "value": "++"}]}
{"molecule": "SOD1: SOD1, protective agent", "values": [{"measurement": "Efficacy of protective agent against aminoglycoside ototoxicity", "setting": "[1]; Kanamycin + Ethacrynic acid", "value": "++"}]}
{"molecule": "Z-DEVD-fluoromethyl ketone", "values": [{"measurement": "Degree of protection against cisplatin ototoxicity", "setting": "cisplatin ototoxicity [9]", "value": "+++"}]}
{"molecule": "Z-LEKD-fluoromethyl ketone", "values": [{"measurement": "Degree of protection against cisplatin ototoxicity", "setting": "cisplatin ototoxicity [9]", "value": "+++"}]}
{"molecule": "B1", "values": [{"measurement": "Efficacy of protective agent against aminoglycoside ototoxicity", "setting": "[1]; Kanamycin + Ethacrynic acid", "value": "++"}]}
